Assay results taken from PMC10537604, “Development and Assessment of 1,5–Diarylpyrazole/Oxime Hybrids Targeting EGFR and JNK–2 as Antiproliferative Agents: A Comprehensive Study through Synthesis, Molecular Docking, and Evaluation” (Molecules, 2023).

Columns and labels:
[1] = Nitric oxide release, Griess colorimetric method; assay type: physicochemical; conditions: phosphate buffer pH 7.4, N-acetylcysteine
Experimental: For the indirect determination of NO, the Griess colorimetric approach was utilized, which includes spectrophotometry measurements of the stable decomposition products NO2^− and NO3^−. This method requires that NO3^− is first reduced to NO2^− and then NO2^− is determined by the Griess reaction that includes two steps, the first step is a diazotization reaction in which the NO-derived nitrogen agent, dinitrogen trioxide (N2O3), which is produced by the spontaneous oxidation of NO with sulfanilamide to form the diazonium ion, is used. […] In order to evaluate thiol-induced NO generation from the appropriate compounds, including NO-donating oximes 8a–b, 8d–i, and 10a–c, they were incubated in aqueous phosphate buffer of pH 7.4 in the presence of excess N-acetylcysteine, which serves as a source of thiols that are essential for the release of NO from oximes. The signal intensity of the dye is proportional to the amount of NO released. To quantify the amount of NO released, a standard curve was made by measuring the change in absorbance of various concentrations of standard sodium nitrite solutions treated by the same way. […] At the first hour, the amount of nitric oxide released increased in compounds 8i, 8b, and 8h, while the maximum release of nitric oxide occurring in compounds 8b and 8h was at 2 h. Then, the amount of nitic oxide released declined, which may explain the biological importance of oxime moiety as a source of nitric oxide release in comparison with ketone intermediates 7a–j and 9a–c, as shown in the anticancer activity of oxime derivatives.
The nitrite calibration curve in addition to the absorbance of the tested compounds were measured on Shimadzu UV-160, UV-Visible spectrophotometer (Shimadzu, Tokyo, Japan). The tested compounds were prepared as solutions in DMF and diluted with the buffer system until a concentration of 100 mM. N-Acetyl cysteine solution was prepared in a concentration of 500 mM in methanol. Griess reagent consists of 0.1% w/v NED solution in water and sulfanilamide solution (1% w/v of sulfanilamide in 5% w/v phosphoric acid). Nitrite standard solution (0.1 M sodium nitrite in water) stock solution was prepared, from which a dilute solution of 100 μM nitrite solution was prepared by dilution 1 mL of the stock solution to 1000 mL with phosphate buffer of pH 7.4. From this solution, 4 serials 2-fold dilutions were performed to generate different concentrations of the nitrite solution (100.00, 50.00, 25.00, and 12.50 μM) and these concentrations were used for nitrite calibration curve.
Sulfanilamide and NEDD solutions were kept at 25 °C; […] of sulfanilamide solution was added to each dilution of the prepared standard nitrite solution. The mixture was left at 25 °C for 5–10 min protected from light. To this mixture, […] of the NEDD solution was added and the mixture was again left for 5–10 min at 25 °C protected from light. […] A plot of the average absorbance value for each concentration of the nitrite standard solution as a function of “Y” against nitrite concentration as a function of “X” was constructed to generate a standard nitrite calibration curve at pH 7.4.
The amount of NO released from the tested compounds 8a–b, 8d–I, and 10a–c was measured using the Griess colorimetric method either in phosphate buffer of pH 7.4 in the presence of N-acetyl cysteine, which serves as a source of thiols. The amount of NO released from the tested compounds was measured relative to NO released from standard sodium nitrite solution.
Different solutions of the tested compounds 8a–b, 8d–i, and 10a–c in DMF were diluted using phosphate buffer of pH 7.4 till a final concentration of 100 mM (test solutions). To […] of different test solutions, […] of N-acetyl cysteine solution was added and the obtained solution was kept in an incubator at 37 °C (treated solutions). […]

[2] = test system: human hepatocellular carcinoma cell line HepG2; test: WST-8 antiproliferative assay, HepG2; assay type: cell-based; conditions: HepG2, 100 µM, WST-8 assay, read-out: Growth Inhibition (GI%) HepG2

| Compound | Amount of NO Released (mol/mol) 1 h [1] | Amount of NO Released (mol/mol) 2 h [1] | Amount of NO Released (mol/mol) 3 h [1] | Amount of NO Released (mol/mol) 4 h [1] | inhibition at 100 µM [2] |
| --- | --- | --- | --- | --- | --- |
| COc1cc(/C(C)=N/O)ccc1OC(=O)c1cc(-c2ccc(Cl)cc2)n(-c2ccc(S(N)(=O)=O)cc2)n1 [Compound 8i, (E)–4–(1–(Hydroxyimino)ethyl)–2–methoxyphenyl 5–(4–chlorophenyl)–1–(4–sulfamoyl phenyl)–1H–pyrazole–3–carboxylate] | 0.105 ± 0.029 mol/mol | 0.115 ± 0.018 mol/mol | 0.109 ± 0.046 mol/mol | 0.087 ± 0.035 mol/mol | 90% |
| C/C(=N\O)c1ccc(NC(=O)c2cc(-c3ccccc3)n(-c3ccc(S(N)(=O)=O)cc3)n2)cc1 [Compound 10a, (E)–N–(4–(1–(Hydroxyimino)ethyl)phenyl)–5–phenyl–1–(4–sulfamoylphenyl)–1H–pyrazole–3–carboxamide] | 0.054 ± 0.023 mol/mol | 0.108 ± 0.043 mol/mol | 0.069 ± 0.024 mol/mol | 0.036 ± 0.012 mol/mol | 72% |
| COc1ccc(-c2cc(C(=O)Nc3ccc(/C(C)=N/O)cc3)nn2-c2ccc(S(N)(=O)=O)cc2)cc1 [Compound 10b, (E)–N–(4–(1–(Hydroxyimino)ethyl)phenyl)–5–(4–methoxyphenyl)–1–(4–sulfamoylphenyl)–1H–pyrazole–3–carboxamide] | 0.095 ± 0.035 mol/mol | 0.114 ± 0.046 mol/mol | 0.079 ± 0.031 mol/mol | 0.031 ± 0.018 mol/mol | 2% |
| COc1ccc(-c2cc(C(=O)Nc3ccc(/C(C)=N/O)cc3)nn2-c2ccc(S(N)(=O)=O)cc2)cc1OC [Compound 10c, (E)–5–(3,4–Dimethoxyphenyl)–N–(4–(1–(hydroxyimino)ethyl)phenyl)–1–(4–sulfamoyl phenyl)–1H–pyrazole–3–carboxamide] | 0.075 ± 0.036 mol/mol | 0.151 ± 0.049 mol/mol | 0.114 ± 0.030 mol/mol | 0.081 ± 0.020 mol/mol | 52% |
